Measured values published in patent US8501786B2, “Hydroxymethyl pyrrolidines as beta 3 adrenergic receptor agonists” (Merck Sharp & Dohme Corp., priority 2009, dated 2013).
Counter-ions that a name gives are not always drawn. Like-named read-outs stand apart in the source and are kept apart here.

Target: T1, human β3 adrenergic receptor (Homo sapiens, UniProt P13945)
T1 construct: stably transfected with the cloned β-adrenergic receptor (β1, β2 or β3); expressed in transfected cells; host or cells: Chinese hamster ovary (CHO) cells, stably transfected
T1 sequence (P13945 whole entry): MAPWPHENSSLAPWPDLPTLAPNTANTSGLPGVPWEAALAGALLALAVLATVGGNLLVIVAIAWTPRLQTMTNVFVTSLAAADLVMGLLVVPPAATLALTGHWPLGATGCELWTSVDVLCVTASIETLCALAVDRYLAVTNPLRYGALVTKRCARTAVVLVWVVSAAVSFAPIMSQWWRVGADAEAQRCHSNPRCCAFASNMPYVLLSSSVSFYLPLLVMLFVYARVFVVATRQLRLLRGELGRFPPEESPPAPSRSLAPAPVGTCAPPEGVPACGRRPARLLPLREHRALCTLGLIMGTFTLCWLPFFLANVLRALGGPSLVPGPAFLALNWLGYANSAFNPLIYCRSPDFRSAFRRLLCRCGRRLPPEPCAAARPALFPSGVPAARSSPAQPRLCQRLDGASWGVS
Test: Functional assay: cAMP production (LANCE TR-FRET) in CHO cells stably transfected with cloned β3 adrenergic receptor
Type: cell-based
Method: Functional Assay: cAMP production in response to ligand is measured according to Barton, et al. (1991, Agonist-induced desensitization of D2 dopamine receptors in human Y-79 retinoblastoma cells. Mol. Pharmacal. v3229:650-658) modified as follows, cAMP production is measured using a homogenous time-resolved fluorescence resonance energy transfer immunoassay (LANCE™, Perkin Elmer) according to the manufacture's instructions. Chinese hamster ovary (CHO) cells, stably transfected with the cloned β-adrenergic receptor (β1, β2 or β3) are harvested after 3 days of subculturing. Harvesting of cells is done with Enzyme-free Dissociation Media (Specialty Media). Cells are then counted and resuspended in assay buffer (Hank's Balanced salt solution supplemented with 5 mM HEPES, […]) containing a phosphodiesterase inhibitor (IBMX, 0.6 mM). The reaction is initiated by mixing 6,000 cells in 6 μL with 6 μL Alexa Fluor labeled cAMP antibody (LANCE™ kit) which is then added to an assay well containing 12 μL of compound (diluted in assay buffer to 2× final concentration). The reaction proceeds for 30 min at room temperature and is terminated by the addition of 24 ul detection buffer (LANCE™ kit). The assay plate is then incubated for 1 h at room temperature and time-resolved fluorescence measured on a Perkin Elmer Envision reader or equivalent. The unknown cAMP level is determined by comparing fluorescence levels to a cAMP standard curve.
The non-selective, full agonist β-adrenergic ligand isoproterenol is used at all three receptors to determine maximal stimulation. The human β3 adrenergic receptor (AR) selective ligand (S)-N-[4-[2-[[2-hydroxy-3-(4-hydroxyphenoxy)propyl]amino]ethyl]-phenyl]-4-iodobenzenesulfonamide is used as a control in all assays. Isoproterenol is titrated at a final concentration in the assay of 10^-10 M to 10-5 and the selective ligand (S)-N-[4-[2-[[2-hydroxy-3-(4-hydroxyphenoxy)propyl]amino]ethyl]phenyl]-4-iodobenzenesulfonamide is titrated at the β3 receptor at concentration of 10^-10 M to 10^-5 M. Unknown ligands are titrated at all 3 β-adrenergic receptor subtypes at a final concentration in the assay of 10^-10 M to 10^-5 M to determine the EC50. The EC50 is defined as the concentration of compound that gives 50% activation of its own maximum. Data are analyzed using Microsoft Excel and Graphpad Prism or an internally developed data analysis software package.

[1] = Table 6, human β3 functional activity given as ranges, read-out: Human β3 functional
[2] = Table 3, cAMP production, CHO cells expressing human β3 AR, read-out: Human β3 functional
[3] = Table 2, cAMP production, CHO cells expressing human β3 AR, read-out: Human β3 functional
[4] = cAMP production, CHO cells expressing human β3 AR, read-out: human Beta-3 agonist functional activity
[5] = Table 4, cAMP production, CHO cells expressing human β3 AR, read-out: Human β3 functional

Compound | EC50 [2] [nM] | also measured
CC(C(=O)Nc1ccc(C[C@@H]2CC[C@H]([C@H](O)c3cccnc3)N2)cc1)N(C)C(=O)c1ccccc1F (some centres unmarked) [Example 261] |  | EC50 [1]: 11 to 100 nM
O=C(Cn1cccnc1=O)Nc1ccc(CC2CC[C@H]([C@H](O)c3cccnc3)N2)cc1 (some centres unmarked) [Example 60] |  | EC50 [3]: 1 to 10 nM
O=S(=O)(Nc1ccc(C[C@@H]2CC[C@H]([C@H](O)c3cccnc3)N2)cc1)c1ccc(-c2nc(-c3ccc(C(F)(F)F)cc3)cs2)cc1 [Example 222, N-[4-({(2S,5R)-5-[(R)-hydroxy(pyridin-3-yl)methyl]pyrrolidin-2-yl}methyl)phenyl]-4-{4-[4-(trifluoromethyl)phenyl]-1,3-thiazol-2-yl}benzenesulfonamide, trifluoroacetic acid salt] |  | EC50 [4]: < 10 nM
O=C(Cc1cccc(F)c1F)Nc1ccc(CC2CC[C@H]([C@H](O)c3cccnc3)N2)cc1 (some centres unmarked) [Example 79] |  | EC50 [3]: 11 to 100 nM
CCCCCCNC(=O)Nc1ccc(S(=O)(=O)Nc2ccc(C[C@@H]3CC[C@H]([C@H](O)c4cccnc4)N3)cc2)cc1 [Example 239, 4-{[(Hexylamino)carbonyl]amino}-N-[4-({(2S,5R)-5-[(R)-hydroxy(pyridin-3-yl)methyl]pyrrolidin-2-yl}methyl)phenyl]benzenesulfonamide, trifluoroacetic acid salt] |  | EC50 [4]: < 10 nM
CCc1nc2c(s1)CCC2C(=O)Nc1ccc(CC2CC[C@H]([C@H](O)c3cccnc3)N2)cc1 (single isomer, unassigned) [Example 119] | 101 to 1000 | 
O=C(Nc1ccc(CC2CC[C@H]([C@H](O)c3cccnc3)N2)cc1)[C@@H]1CCCN1c1nccs1 (some centres unmarked) [Example 30] |  | EC50 [3]: 1 to 10 nM
CC(F)(C(=O)Nc1ccc(CC2CC[C@H]([C@H](O)c3cccnc3)N2)cc1)c1ccccn1 (single isomer, unassigned) [Example 146] | 11 to 100 | 
COCc1nc2c(s1)CCC2C(=O)Nc1ccc(CC2CC[C@H]([C@H](O)c3cccnc3)N2)cc1 (single isomer, unassigned) [Example 126] | 101 to 1000 | 
C[C@H](NS(=O)(=O)c1ccc(F)cc1)C(=O)Nc1ccc(C[C@@H]2CC[C@H]([C@H](O)c3cccnc3)N2)cc1 [Example 246, (2S)-2-{[(4-Fluorophenyl)sulfonyl]amino}-N-[4-({(2S,5R)-5-[(R)-hydroxy(pyridin-3-yl)methyl]pyrrolidin-2-yl}methyl)phenyl]propanamide] |  | EC50 [4]: < 100 nM
CC(C(=O)Nc1ccc(CC2CC[C@H]([C@H](O)c3cccnc3)N2)cc1)n1cc(C(N)=O)nn1 (single isomer, unassigned) [Example 201] | 1 to 10 | 
Cc1nc2c(s1)CCCC2C(=O)Nc1ccc(CC2CC[C@H]([C@H](O)c3cccnc3)N2)cc1 (single isomer, unassigned) [Example 134] | 11 to 100 | 
Cc1cccc(CC(=O)Nc2ccc(CC3CC[C@H]([C@H](O)c4cccnc4)N3)cc2)n1 (some centres unmarked) [Example 28] |  | EC50 [3]: 101 to 1000 nM
O=S(=O)(Cc1ccccn1)Nc1ccc(CC2CC[C@H]([C@H](O)c3cccnc3)N2)cc1 (some centres unmarked) [Example 226] |  | EC50 [5]: 101 to 1000 nM
Cc1noc2c1CCC2C(=O)Nc1ccc(CC2CC[C@H]([C@H](O)c3cccnc3)N2)cc1 (single isomer, unassigned) [Example 168] | 1 to 10 | 
O=C(Cn1c(-c2ccccc2)nc2ccccc21)Nc1ccc(CC2CC[C@H]([C@H](O)c3cccnc3)N2)cc1 (some centres unmarked) [Example 18] |  | EC50 [3]: 11 to 100 nM

Compound | EC50 [2] [nM] | also measured
N#Cc1ccccc1S(=O)(=O)Nc1ccc(CC2CC[C@H]([C@H](O)c3cccnc3)N2)cc1 (some centres unmarked) [Example 235] |  | EC50 [5]: 101 to 1000 nM
O=C(Cn1nc2ccccc2n1)Nc1ccc(CC2CC[C@H]([C@H](O)c3cccnc3)N2)cc1 (some centres unmarked) [Example 7] |  | EC50 [3]: 11 to 100 nM
O=C(Cc1n[nH]c(-c2ccccc2)n1)Nc1ccc(CC2CC[C@H]([C@H](O)c3cccnc3)N2)cc1 (some centres unmarked) [Example 4] |  | EC50 [3]: 1 to 10 nM
O=C(Nc1ccc(CC2CC[C@H]([C@H](O)c3cccnc3)N2)cc1)C1CCc2sc(C3CC3)nc21 (single isomer, unassigned) [Example 122] | 101 to 1000 | 
CC(C(=O)Nc1ccc(C[C@@H]2CC[C@H]([C@H](O)c3cccnc3)N2)cc1)N(C)C(=O)c1ccccn1 (some centres unmarked) [Example 247] |  | EC50 [1]: 101 to 1000 nM
O=C(Nc1ccc(CC2CCC(C(O)c3cccnc3)N2)cc1Br)C1CCc2sc(Br)nc21 (single isomer, unassigned) [Example 241, (4S or 4R)-2-bromo-N-[2-bromo-4-({(2S,5R)-5-[(R)-hydroxy(pyridin-3-yl)methyl]pyrrolidin-2-yl}methyl)phenyl]-5,6-dihydro-4H-cyclopenta[d][1,3]thiazole-4-carboxamide] |  | EC50 [4]: < 100 nM
O=C(Cc1ncccn1)Nc1ccc(CC2CC[C@H]([C@H](O)c3cccnc3)N2)cc1 (some centres unmarked) [Example 22] |  | EC50 [3]: 11 to 100 nM
COCCC(C(=O)Nc1ccc(CC2CC[C@H]([C@H](O)c3cccnc3)N2)cc1)n1cccn1 (single isomer, unassigned) [Example 220] | 1 to 10 | 
CN1CCN(CC(=O)Nc2ccc(CC3CC[C@H]([C@H](O)c4cccnc4)N3)cc2)C1=O (some centres unmarked) [Example 86] |  | EC50 [3]: 101 to 1000 nM
Cc1ccn(C(C)C(=O)Nc2ccc(CC3CC[C@H]([C@H](O)c4cccnc4)N3)cc2)n1 (single isomer, unassigned) [Example 99] | 11 to 100 | 
C[C@@H](C(=O)Nc1ccc(C[C@@H]2CC[C@H]([C@H](O)c3cccnc3)N2)cc1)n1ccccc1=O (single isomer, unassigned) [Example 95] |  | EC50 [4]: < 10 nM
CC(NC(=O)c1cscn1)C(=O)Nc1ccc(C[C@@H]2CC[C@H]([C@H](O)c3cccnc3)N2)cc1 (some centres unmarked) [Example 251] |  | EC50 [1]: 1 to 10 nM
O=C(Cn1cnc2ccccc2c1=O)Nc1ccc(CC2CC[C@H]([C@H](O)c3cccnc3)N2)cc1 (single isomer, unassigned) [Example 12] |  | EC50 [3]: 1 to 10 nM
CC(C(=O)Nc1ccc(C[C@@H]2CC[C@H]([C@H](O)c3cccnc3)N2)cc1)N(C)C(=O)c1ccccc1F (some centres unmarked) [Example 248] |  | EC50 [1]: 11 to 100 nM
CC(C(=O)Nc1ccc(CC2CC[C@H]([C@H](O)c3cccnc3)N2)cc1)n1cccn1 (single isomer, unassigned) [Example 97] | 11 to 100 | 
C#CCC(C(=O)Nc1ccc(CC2CC[C@H]([C@H](O)c3cccnc3)N2)cc1)c1cnc(N)s1 (single isomer, unassigned) [Example 110] | 1 to 10 | 

More lines, main results first:

EC50 [2] [nM] | Compound | also measured
1 to 10 | CC(C(=O)Nc1ccc(CC2CC[C@H]([C@H](O)c3cccnc3)N2)cc1)n1cnccc1=O (single isomer, unassigned) [Example 165] | 
11 to 100 | Cc1nnc2c(C(C)C(=O)Nc3ccc(CC4CC[C@H]([C@H](O)c5cccnc5)N4)cc3)cccn12 (single isomer, unassigned) [Example 216] | 
1000 to 3000 | Cc1nc2c(s1)CCC2(C)C(=O)Nc1ccc(CC2CC[C@H]([C@H](O)c3cccnc3)N2)cc1 (single isomer, unassigned) [Example 129] | 
101 to 1000 | CC(C(=O)Nc1ccc(CC2CC[C@H]([C@H](O)c3cccnc3)N2)cc1)c1csc(C(F)(F)F)n1 (single isomer, unassigned) [Example 112] | 
1 to 10 | CCC(C(=O)Nc1ccc(CC2CC[C@H]([C@H](O)c3cccnc3)N2)cc1)n1cccn1 (single isomer, unassigned) [Example 184] | 
1 to 10 | CC(C(=O)Nc1ccc(CC2CC[C@H]([C@H](O)c3cccnc3)N2)cc1)n1nncc1C(=O)O (single isomer, unassigned) [Example 206] | 
1 to 10 | CCCC(C(=O)Nc1ccc(CC2CC[C@H]([C@H](O)c3cccnc3)N2)cc1)c1cnc(N)s1 (single isomer, unassigned) [Example 109] | 
1 to 10 | O=C(Nc1ccc(CC2CC[C@H]([C@H](O)c3cccnc3)N2)cc1)[C@@H]1CCc2nnnn21 (some centres unmarked) [Example 172] | 
1 to 10 | CC(C(=O)Nc1ccc(CC2CC[C@H]([C@H](O)c3cccnc3)N2)cc1)n1cnc2ccccc2c1=O (single isomer, unassigned) [Example 218] | 
11 to 100 | O=C(Nc1ccc(CC2CC[C@H]([C@H](O)c3cccnc3)N2)cc1)C1CCc2scnc21 (single isomer, unassigned) [Example 191] | 
101 to 1000 | CC(C(=O)Nc1ccc(CC2CC[C@H]([C@H](O)c3cccnc3)N2)cc1)n1ccc(C(N)=O)n1 (single isomer, unassigned) [Example 203] | 
11 to 100 | CC(C)c1nc2c(s1)CCC2C(=O)Nc1ccc(CC2CC[C@H]([C@H](O)c3cccnc3)N2)cc1 (single isomer, unassigned) [Example 124] | 
